# In PubChem BioAssay (NCI):
#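 All cell lines were grown in 96-well plates and treated with compound for 48 hours. GI50 = concentration required for 50% inhibition of growth. TGI: total growth inhibition.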
# Columns and labels:
# Assay in all cases: growth of human tumour cells (NCI), 48 h
# KM12 colon = test system: KM12 colon
# SNB-75 CNS = test system: SNB-75 CNS
# U251 CNS = test system: U251 CNS
# SN12C renal = test system: SN12C renal
# TK-10 renal = test system: TK-10 renal
# MCF7 breast = test system: MCF7 breast
# NCI/ADR-RES ovarian = test system: NCI/ADR-RES ovarian
# ACHN renal = test system: ACHN renal
# CCRF-CEM leukemia = test system: CCRF-CEM leukemia
# SW-620 colon = test system: SW-620 colon
# OVCAR-5 ovarian = test system: OVCAR-5 ovarian
# PC-3 prostate = test system: PC-3 prostate
# NCI-H23 lung = test system: NCI-H23 lung
# HL-60(TB) leukemia = test system: HL-60(TB) leukemia
# MDA-MB-435 = test system: MDA-MB-435
# 786-0 renal = test system: 786-0 renal
# SK-MEL-2 melanoma = test system: SK-MEL-2 melanoma
# HS 578T breast = test system: HS 578T breast
# RPMI-8226 leukemia = test system: RPMI-8226 leukemia
# UACC-62 melanoma = test system: UACC-62 melanoma
# HCT-15 colon = test system: HCT-15 colon
# NCI-H460 lung = test system: NCI-H460 lung
# DU-145 prostate = test system: DU-145 prostate
# NCI-H522 lung = test system: NCI-H522 lung
# COLO 205 colon = test system: COLO 205 colon
# HCT-116 colon = test system: HCT-116 colon
# MALME-3M melanoma = test system: MALME-3M melanoma
# OVCAR-8 ovarian = test system: OVCAR-8 ovarian
# M14 melanoma = test system: M14 melanoma
# A498 renal = test system: A498 renal
# LOX IMVI melanoma = test system: LOX IMVI melanoma
# BT-549 breast = test system: BT-549 breast
# HCC-2998 colon = test system: HCC-2998 colon
# NCI-H226 lung = test system: NCI-H226 lung
# A549 NSCLC = test system: A549 NSCLC
# MDA-MB-468 breast = test system: MDA-MB-468 breast
# T-47D breast = test system: T-47D breast
# MDA-MB-231 breast = test system: MDA-MB-231 breast
# IGROV1 ovarian = test system: IGROV1 ovarian
# SK-MEL-5 melanoma = test system: SK-MEL-5 melanoma
# SK-MEL-28 melanoma = test system: SK-MEL-28 melanoma
# SF-268 CNS = test system: SF-268 CNS
# HOP-62 NSCLC = test system: HOP-62 NSCLC
# OVCAR-3 ovarian = test system: OVCAR-3 ovarian
# MOLT-4 leukemia = test system: MOLT-4 leukemia
# SNB-19 CNS = test system: SNB-19 CNS
# OVCAR-4 ovarian = test system: OVCAR-4 ovarian
# CAKI-1 renal = test system: CAKI-1 renal
# SF-295 CNS = test system: SF-295 CNS
# RXF 393 renal = test system: RXF 393 renal
# SK-OV-3 ovarian = test system: SK-OV-3 ovarian
# UO-31 renal = test system: UO-31 renal
# K-562 leukemia = test system: K-562 leukemia
# EKVX NSCLC = test system: EKVX NSCLC
# UACC-257 melanoma = test system: UACC-257 melanoma
# HT29 colon = test system: HT29 colon
# HOP-92 NSCLC = test system: HOP-92 NSCLC
# SF-539 CNS = test system: SF-539 CNS
smiles,measurement,setting,value
COc1ccc2c(c1)c(/C=N/Nc1ccc3ccccc3n1)cn2C,GI50,KM12 colon,5.47 µM
same,TGI,KM12 colon,21.9 µM
same,GI50,SNB-75 CNS,4.97 µM
same,TGI,SNB-75 CNS,22.2 µM
same,GI50,U251 CNS,13.3 µM
same,TGI,U251 CNS,32.9 µM
same,GI50,SN12C renal,7.61 µM
same,TGI,SN12C renal,22.5 µM
same,GI50,TK-10 renal,22.5 µM
same,TGI,TK-10 renal,39 µM
same,GI50,MCF7 breast,4.45 µM
same,TGI,MCF7 breast,24.2 µM
same,GI50,NCI/ADR-RES ovarian,10.4 µM
same,TGI,NCI/ADR-RES ovarian,30.3 µM
same,GI50,ACHN renal,7.38 µM
same,TGI,ACHN renal,21.4 µM
same,GI50,CCRF-CEM leukemia,5.52 µM
same,TGI,CCRF-CEM leukemia,86.7 µM
same,GI50,SW-620 colon,7.46 µM
same,TGI,SW-620 colon,35.2 µM
same,GI50,OVCAR-5 ovarian,11.9 µM
same,TGI,OVCAR-5 ovarian,24.7 µM
same,GI50,PC-3 prostate,8.25 µM
same,TGI,PC-3 prostate,23.9 µM
same,GI50,NCI-H23 lung,11.8 µM
same,TGI,NCI-H23 lung,28.4 µM
same,GI50,HL-60(TB) leukemia,10.4 µM
same,TGI,HL-60(TB) leukemia,41.7 µM
same,GI50,MDA-MB-435,8.41 µM
same,TGI,MDA-MB-435,23.1 µM
same,GI50,786-0 renal,15.3 µM
same,TGI,786-0 renal,31.6 µM
same,GI50,SK-MEL-2 melanoma,16.8 µM
same,TGI,SK-MEL-2 melanoma,35.1 µM
same,GI50,HS 578T breast,13 µM
same,TGI,HS 578T breast,33.3 µM
same,GI50,RPMI-8226 leukemia,7.83 µM
same,TGI,RPMI-8226 leukemia,42.9 µM
same,GI50,UACC-62 melanoma,12.7 µM
same,TGI,UACC-62 melanoma,26.8 µM
same,GI50,HCT-15 colon,3.4 µM
same,TGI,HCT-15 colon,13.3 µM
same,GI50,NCI-H460 lung,7.8 µM
same,TGI,NCI-H460 lung,30 µM
same,GI50,DU-145 prostate,12.3 µM
same,TGI,DU-145 prostate,25.5 µM
same,GI50,NCI-H522 lung,14 µM
same,TGI,NCI-H522 lung,39 µM
same,GI50,COLO 205 colon,15.9 µM
same,TGI,COLO 205 colon,39.2 µM
same,GI50,HCT-116 colon,8.18 µM
same,TGI,HCT-116 colon,26.5 µM
same,GI50,MALME-3M melanoma,18.6 µM
same,TGI,MALME-3M melanoma,38.7 µM
same,GI50,OVCAR-8 ovarian,14.7 µM
same,TGI,OVCAR-8 ovarian,35.7 µM
same,GI50,M14 melanoma,13.4 µM
same,TGI,M14 melanoma,30.1 µM
same,GI50,A498 renal,17.4 µM
same,TGI,A498 renal,33 µM
same,GI50,LOX IMVI melanoma,1970 nM
same,TGI,LOX IMVI melanoma,5.27 µM
same,GI50,BT-549 breast,15.2 µM
same,TGI,BT-549 breast,30.2 µM
same,GI50,HCC-2998 colon,3.69 µM
same,TGI,HCC-2998 colon,15.4 µM
same,GI50,NCI-H226 lung,7.95 µM
same,TGI,NCI-H226 lung,29.6 µM
same,GI50,A549 NSCLC,9.48 µM
same,TGI,A549 NSCLC,28.7 µM
same,GI50,MDA-MB-468 breast,3910 nM
same,TGI,MDA-MB-468 breast,16.1 µM
same,GI50,T-47D breast,8.62 µM
same,TGI,T-47D breast,36.5 µM
same,GI50,MDA-MB-231 breast,4.36 µM
same,TGI,MDA-MB-231 breast,19 µM
same,GI50,IGROV1 ovarian,10.8 µM
same,TGI,IGROV1 ovarian,26.5 µM
same,GI50,SK-MEL-5 melanoma,10.4 µM
same,TGI,SK-MEL-5 melanoma,22.7 µM
same,GI50,SK-MEL-28 melanoma,14.9 µM
same,TGI,SK-MEL-28 melanoma,30.3 µM
same,GI50,SF-268 CNS,14.3 µM
same,TGI,SF-268 CNS,31.3 µM
same,GI50,HOP-62 NSCLC,11.3 µM
same,TGI,HOP-62 NSCLC,44.9 µM
same,GI50,OVCAR-3 ovarian,13.9 µM
same,TGI,OVCAR-3 ovarian,31.4 µM
same,GI50,MOLT-4 leukemia,6.5 µM
same,TGI,MOLT-4 leukemia,39.1 µM
same,GI50,SNB-19 CNS,15.8 µM
same,TGI,SNB-19 CNS,32.4 µM
same,GI50,OVCAR-4 ovarian,13.2 µM
same,TGI,OVCAR-4 ovarian,33.3 µM
same,GI50,CAKI-1 renal,5.95 µM
same,TGI,CAKI-1 renal,21.3 µM
same,GI50,SF-295 CNS,11.2 µM
same,TGI,SF-295 CNS,24.4 µM
same,GI50,RXF 393 renal,5.03 µM
same,TGI,RXF 393 renal,19.1 µM
same,GI50,SK-OV-3 ovarian,16.3 µM
same,TGI,SK-OV-3 ovarian,36.5 µM
same,GI50,UO-31 renal,1680 nM
same,TGI,UO-31 renal,13.4 µM
same,GI50,K-562 leukemia,3.36 µM
same,TGI,K-562 leukemia,> 100 µM
same,GI50,EKVX NSCLC,2300 nM
same,TGI,EKVX NSCLC,19.4 µM
same,GI50,UACC-257 melanoma,15.4 µM
same,TGI,UACC-257 melanoma,30.2 µM
same,GI50,HT29 colon,5.46 µM
same,TGI,HT29 colon,23.1 µM
same,GI50,HOP-92 NSCLC,1580 nM
same,TGI,HOP-92 NSCLC,11.5 µM
same,GI50,SF-539 CNS,10.3 µM
same,TGI,SF-539 CNS,22.2 µM
N#Cc1ccc(C2C3=C(CCCC3=O)OC3=C2C(=O)c2ccccc2C3=O)cc1 (stereo not drawn),GI50,MDA-MB-468 breast,309 nM
same,TGI,MDA-MB-468 breast,0.867 µM
O=C1NC(=O)C(c2ccc(Cl)cc2)=C1Nc1ccc(Cl)c(C(=O)O)c1,GI50,MDA-MB-468 breast,> 25000 nM
same,TGI,MDA-MB-468 breast,> 25 µM
Cn1c(/C=C(\C#N)c2cccc(C(F)(F)F)c2)nc2c(N3CCOCC3)nc(Cl)nc21,GI50,MDA-MB-468 breast,432 nM
same,TGI,MDA-MB-468 breast,1.63 µM
COc1cc(F)cc([C@@H](CO)NC(=O)[C@@H](C)N2Cc3ccc(-c4nc(NC5CCOCC5)ncc4Cl)cc3C2=O)c1,GI50,MDA-MB-468 breast,1820 nM
same,TGI,MDA-MB-468 breast,17 µM
COc1ccc(/C(=N\NC(N)=S)c2ccc(Cl)cc2)cc1OC,GI50,MDA-MB-468 breast,1910 nM
same,TGI,MDA-MB-468 breast,7.99 µM
CCCC(=O)NC(c1cccnc1)c1cc(C(C)(C)C)c2cccnc2c1O (stereo not drawn),GI50,MDA-MB-468 breast,2310 nM
same,TGI,MDA-MB-468 breast,8.98 µM
CC(C)(C)NCCC(O)c1cc2c(Cl)cc(Cl)cc2c2cc(C(F)(F)F)ccc12 (stereo not drawn),GI50,MDA-MB-468 breast,1590 nM
same,TGI,MDA-MB-468 breast,3.06 µM
Oc1ccc2ccccc2c1C1NN=C(c2ccccc2)S1 (stereo not drawn),GI50,MDA-MB-468 breast,536 nM
same,TGI,MDA-MB-468 breast,3.94 µM
C[n+]1c2ccccc2c(Nc2ccc(NS(=O)(=O)CCCCN=C(N)N)cc2)c2ccc(N)cc21,GI50,MDA-MB-468 breast,989 nM
same,TGI,MDA-MB-468 breast,26.1 µM
CCCCOC(=O)c1ccc(NC(=O)CCl)cc1,GI50,MDA-MB-468 breast,1780 nM
same,TGI,MDA-MB-468 breast,4.08 µM
CCO/C=N/C1=C(C#N)C(c2ccc(Cl)cc2)c2sc3c(C)cccc3c2O1 (stereo not drawn),GI50,MDA-MB-468 breast,386 nM
same,TGI,MDA-MB-468 breast,14.5 µM
